Literature values, collected in patent US20110245279A1, “PREDICTIVE MARKER FOR EGFR INHIBITOR TREATMENT” (priority 2007, published 2011).
Read-outs that look alike come from different tables or passages of the source. Each block holds one compound with its values, some of them ahead of it.

Tests used:
NSCLC [1] = settings: single agent; NSCLC patients for whom standard therapy for advanced disease has failed
[2] = patients with cancer receiving the 150 mg/day dose
NSCLC [3] = test system: NSCLC
[4] = randomized phase III trial, second line therapy of NSCLC

drug levels in plasma [2]: > 500 ng/mL
Compound: C#Cc1cccc(Nc2ncnc3cc(OCCOC)c(OCCOC)cc23)c1 [Tarceva, erlotinib]
survival (NSCLC [1]): significantly prolongs and improves the survival

Compound: CC(=O)O[C@@]12CO[C@@H]1C[C@H](O)[C@@]1(C)C(=O)[C@H](O)C3=C(C)[C@@H](OC(=O)[C@H](O)[C@@H](NC(=O)OC(C)(C)C)c4ccccc4)C[C@@](O)([C@@H](OC(=O)c4ccccc4)[C@H]21)C3(C)C [docetaxel]
survival (NSCLC [3]; second line vs best supportive care, after cisplatin-based first-line regimens had failed): improved survival

Compound: Nc1nc2[nH]cc(CCc3ccc(C(=O)N[C@@H](CCC(=O)O)C(=O)O)cc3)c2c(=O)[nH]1 [pemetrexed]
efficacy compared with docetaxel (NSCLC [3]; [4]): clinically equivalent efficacy
side effects compared with docetaxel (NSCLC [3]; [4]): significantly fewer side effects

Compound: CCOC(=O)c1ccc(C#Cc2ccc3c(c2)C(C)(C)CCS3)nc1 [tazarotene]
expression of RARRES1 gene (RARRES1 gene): up regulated
